Measured values from US5391554A, “Dihydro- and tetrahydronaphthyridines” (Warner-Lambert Company, priority 1992, dated 1995).
“Also recorded” adds a separate entry of the source. Read-outs that look alike come from different tables or passages of the source.

How the values were obtained:
[1] = molecular target: T1, Poly (ADP-ribose) synthetase (Bos taurus, UniProt P18493); assay: Inhibition of Poly (ADP-ribose) synthetase (ADPRP inhibition); assay type: biochemical; conditions: [3H]NAD, calf thymus DNA and histone, pH 8.0, 30° C., 15 minutes
T1 construct: Poly(ADP-ribose) synthetase from calf thymus; from tissue; host or cells: calf thymus
Method: Poly (ADP-ribose) synthetase is partially purified by the procedure of Shizuta, et al, up to and including the DNA-agarose column step. Active fractions are pooled and stored in small aliquots at -90° C. The specific activity was generally in the range of 25 U/rag protein, where one unit of enzyme activity is defined as the amount polymerizing 1 nmol of ADP-ribose moiety from [^3 H]NAD per minute at 30° C.
The enzyme assay is performed by placing the following in small glass tubes kept at 4° C.: 100 μL of buffer consisting of 0.5 M Tris-HCl pH 8.0, 50 mM MgCl2, and 5 mM dithiothreitol; 50 μL of 1 mM [adenine-2,8-^3 H]nicotinamide adenine dinucleotide at a concentration of 15 μCi/mL; 100 μL of calf thymus DNA (0.3 mg/mL in water); 50 μL of calf thymus histone (Sigma, Type IIA, 0.5 mg/mL); 50 μL of inhibitor or inhibitor solvent; 150 μL of enzyme (25 μg). The components are thoroughly mixed and warmed to 30° C. in a water bath. After 15 minutes the reaction is stopped by adding 2 mL of ice cold 15% trichloroacetic acid and the tubes are placed on ice for 15 minutes. The precipitate is collected on glass fiber filters and washed five times with ice-cold 15% trichloroacetic acid. The filters are dried and radioactivity determined in a liquid scintillation counter.

[2] = test system: repair of damage caused by ionizing radiation; conditions: background; cited from earlier work
hypoxic tumor cells = conditions: in vitro and in vivo, background, cited from earlier work
central nervous system = conditions: cited from earlier work
Rif-1 sarcoma = assay: In Vivo Assay for Radiosensitizing Activity (Rif-1 sarcoma); parameters: species or system mice; conditions: IP 30 minutes before first x-ray dose, Days 6-10 and 13-17, x-Ray only T-C 18 days
Method: Mice were implanted with 1.9×10^5 Rif-1 sarcoma cells on Day 0. Treatment was on Days 6-10 and 13-17. On each treatment day the tumor-bearing limb received two doses of 2.5 Gy X-irradiation separated by 3 hours. Test compound was administered IP 30 minutes prior to the first x-ray dose on each treatment day. Effectiveness is measured by the T-C, the difference in days for the treated and control tumors, respectively, to reach 1000 mg.

T1 sequence (P18493 whole entry): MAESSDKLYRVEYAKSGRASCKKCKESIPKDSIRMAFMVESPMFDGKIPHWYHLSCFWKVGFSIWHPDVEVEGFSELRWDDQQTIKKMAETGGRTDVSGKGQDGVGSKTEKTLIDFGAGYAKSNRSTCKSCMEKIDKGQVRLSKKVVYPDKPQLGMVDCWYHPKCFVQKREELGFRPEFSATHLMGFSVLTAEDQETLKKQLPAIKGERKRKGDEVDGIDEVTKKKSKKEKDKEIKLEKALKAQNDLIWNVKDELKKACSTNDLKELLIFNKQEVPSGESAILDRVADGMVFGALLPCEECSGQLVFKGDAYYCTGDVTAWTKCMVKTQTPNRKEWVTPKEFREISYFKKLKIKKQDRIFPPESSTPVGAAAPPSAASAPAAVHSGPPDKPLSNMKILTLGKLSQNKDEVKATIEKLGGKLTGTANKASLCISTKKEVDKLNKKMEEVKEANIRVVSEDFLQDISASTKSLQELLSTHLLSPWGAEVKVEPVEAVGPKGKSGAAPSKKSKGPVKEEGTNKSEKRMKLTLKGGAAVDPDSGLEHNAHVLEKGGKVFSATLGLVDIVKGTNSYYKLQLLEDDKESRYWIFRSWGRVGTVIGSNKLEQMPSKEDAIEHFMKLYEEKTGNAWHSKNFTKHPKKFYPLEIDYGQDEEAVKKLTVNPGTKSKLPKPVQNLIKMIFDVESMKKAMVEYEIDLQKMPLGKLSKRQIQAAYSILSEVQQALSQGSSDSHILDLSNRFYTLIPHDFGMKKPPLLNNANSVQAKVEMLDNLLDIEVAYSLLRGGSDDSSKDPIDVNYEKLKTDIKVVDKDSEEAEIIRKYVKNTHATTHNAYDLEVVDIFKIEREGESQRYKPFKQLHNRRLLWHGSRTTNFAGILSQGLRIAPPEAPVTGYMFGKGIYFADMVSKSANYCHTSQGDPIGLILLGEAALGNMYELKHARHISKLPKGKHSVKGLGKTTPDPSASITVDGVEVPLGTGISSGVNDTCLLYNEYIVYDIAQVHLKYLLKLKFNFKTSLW

Row | Compound | IC50 [1] [µM] | further results
1 | Cc1cccc2c1CCNC2=O [Reference Compound] | 0.11 | 
2 | NC(=O)c1cccc(N)c1 [3-aminobenzamide] |  | sensitization to lethal effects of radiation / inhibition of repair [2]: inhibit this postirradiation repair process; also recorded: repair of damage caused by exposure to DNA-damaging agents such as ionizing radiation, was inhibited
3 | O=c1[nH]ccc2c1CCCN2 [Compound 6, 1,2,3,4-Tetrahydro-1,6-naphthyridine-5(6H)-one] | 1 to 10 | 
4 | COCC(O)Cn1ccnc1[N+](=O)[O-] (stereo not drawn) [misonidazole, α-(methoxymethyl)-2-nitro-1H-imidazole-1-ethanol] |  | radiosensitizing activity (hypoxic tumor cells): of value as a radiosensitizer for hypoxic tumor cells; also recorded: effective as radiosensitizers for hypoxic cells in vivo; CNS side effects (central nervous system; administered to mice): peripheral neuropathy effects and convulsions in mice
5 | Cc1ncc([N+](=O)[O-])n1CCO [metronidazole, 2-methyl-5-nitro-1H-imidazole-1-ethanol] |  | radiosensitizing activity (hypoxic tumor cells): effective as radiosensitizers for hypoxic cells in vivo; radiosensitizing activity (hypoxic tumor cells; listed as Metronidazole): active both in vitro and in vivo as a radiosensitizer; CNS side effects (central nervous system; mouse, in vivo): peripheral neuropathy effects and convulsions in mice
6 | O=C1NCCc2ncccc21 [Compound 13, 7,8-Dihydro-1,6-naphthyridin-5(6H)-one] | 2.5 | T-C (days for treated minus control tumors to reach 1000 mg) (Rif-1 sarcoma; 500 mg/kg/inj + x-Ray (2.5 Gy × 2)): 26 days
7 | CNC=O [N-methylformamide] |  | sensitization to lethal effects of radiation / inhibition of repair [2]: sensitize tumors to the lethal effects of radiation

The next lines start with results.

Row | IC50 [1] [µM] | Compound | further results
8 | 10 to 100 | O=c1[nH]ccc2c1ccc[n+]2[O-] [Compound 9, 1,6-Naphthyridine-5(6H)-one, 1-oxide] | 
9 | 1 to 10 | O=c1[nH]ccc2ncccc12 [Compound 3, 1,6-Naphthyridine-5(6H)-one] | 
10 | 10 to 100 | C[n+]1cccc2c(=O)[nH]ccc21 [Compound 7, 5,6-Dihydro-1-methyl-5-oxo-1,6-naphthyridin-1-ium monoiodide] | 
11 | 1.2 | Cc1cc2ncccc2c(=O)[nH]1 [Compound 4, 7-Methyl-1,6-naphthyridine-5 (6H) -one] | 
12 | 0.51 | CN1CCCc2c1cc[nH]c2=O [Compound 8, 1,2,3,4-Tetrahydro-1-methyl-1,6-naphthyridin-5 (6H) one] | T-C (days for treated minus control tumors to reach 1000 mg) (Rif-1 sarcoma; 340 mg/kg/inj + x-Ray (2.5 Gy × 2)): 38 days
13 | 1 to 10 | O=c1[nH]cc(Br)c2ncccc12 [Compound 5, 8Bromo-1,6-naphthyridine-5(6H) -one] | 
